Ends that are not written are not given here.
Columns and labels:
A. baumannii ATCC19606 = assay: Outer membrane permeabilization (NPN uptake) assay; format: cell-based, Acinetobacter baumannii; settings: peptides at MIC, compared to untreated control and polymyxin B
Protocol: FIG. 3. Synergy, resistance development and mechanism of action studies of encrypted peptides. […] (FIG. 3B) Evolution of resistance by A. baumannii to encrypted peptides derived from the CUB domain (red) or polymyxin B (gray) after 30 days of serial passaging in liquid nutrient broth. Peptides and antibiotics were used at sub-inhibitory concentrations. Cells were passaged every 48 h. […] (FIG. 3D) Cytoplasmic membrane depolarization effects of the encrypted peptides against A. baumannii. (FIG. 3E) NPN assays showing the effect of encrypted peptides derived from the CUB domain and natriuretic peptide on permeabilization of the outer membrane of A. baumannii.
In order to investigate the mode of action of encrypted peptides against bacterial cells, assays were performed to study their effects on the bacterial membrane. First, the ability of encrypted peptides to disrupt and depolarize the bacterial cytoplasmic membrane was assessed […]. 3,3′-dipropylthiadicarbocyanine iodide [DiSC3(5)] was used, a potentiometric fluorophore that accumulates and aggregates in the cytoplasmic membrane, quenching its fluorescence. Upon imbalances of the cytoplasmic membrane transmembrane potential, the fluorophore migrates to the cytoplasm or the outer environment, generating fluorescence. […]
Methods: Membrane depolarization assays. The cytoplasmic membrane depolarization activity of the peptides was determined by measurements of fluorescence of the membrane potential-sensitive dye, DiSC3(5). […] Thereafter, the cells (100 μL) were incubated for 15 min with 20 nmol L^−1 of DiSC3(5) until a stable reduction of fluorescence was achieved, indicating the incorporation of the dye into the bacterial membrane. Membrane depolarization was then monitored by observing the change in the fluorescence emission intensity of the membrane potential-sensitive dye, DiSC3(5) (λex=622 nm, λem=670 nm), after the addition of peptides (100 μL solution at MIC values). […] The membrane permeability of the peptides was determined by using the N-phenyl-1-napthylamine (NPN) uptake assay. […]

P. aeruginosa PAO1 = assay: Neutropenic thigh infection mouse model; format: in vivo, Pseudomonas aeruginosa; settings: for anti-infective activity (FIG. 4E): alone, P. aeruginosa PAO1; for decrease of bacterial counts compared to untreated controls: mice, 25 μmol L^−1 intramuscular, three days post-treatment, P. aeruginosa
Description: FIG. 4. Anti-infective activity and synergistic interactions of encrypted peptides in vivo. (FIG. 4A) Schematic of the skin abscess mouse model used to assess the anti-infective activity of selected encrypted peptides from plasma proteins. […] (FIG. 4C) Mouse weight was monitored throughout the experiment (2 days) to rule out potential toxic effects of the encrypted peptides. (FIG. 4D) Schematic of the neutropenic thigh infection mouse model used to assess the anti-infective activity of selected encrypted peptides from plasma proteins. […] (FIG. 4F) Mouse weight was monitored throughout the experiment (8 days) to rule out potential toxic effects of the encrypted peptides.
Next, the efficacy of the same encrypted peptides (SCUB1-SKE25 and SCUB3-MLP22) was assessed in monotherapy and in combination therapy in a murine thigh infection model (FIG. 4D). This preclinical model is sensitive, standardized, and widely used for assessing antibiotic translatability^43,44. Briefly, mice were rendered neutropenic by cyclophosphamide treatment prior to intramuscular infection with 10^6 cells mL^−1 of the bacterial pathogens P. aeruginosa and A. baumannii (FIG. 4E). Either a single dose of each encrypted peptide (at 25 μmol L^−1) or their combination (also at 25 μmol L^−1) were delivered to the infected site via intramuscular administration. Three days post-treatment, on average the peptides reduced the bacterial load of P. aeruginosa and A. baumannii by 4 and 2 orders of magnitude, respectively, compared to untreated mice.
Methods: Skin abscess infection mouse model. A. baumannii ATCC19606 and P. aeruginosa strain PAO1 were used to infect the murine skin. Briefly, bacteria were grown in tryptic soy broth (TSB) medium. Subsequently, cells were washed twice with sterile PBS (pH 7.4, 13,000 rpm for 1 min), and resuspended to a final concentration of 1×10^5 and 1×10^6 CFU/20 μL for A. baumannii and P. aeruginosa, respectively. Female CD-1 mice (six-weeks old) were anesthetized with isoflurane and had their backs shaved and a superficial linear skin abrasion was made with a needle in order to damage the stratum corneum and upper-layer of the epidermis. […] Animals were euthanized and the area of scarified skin was excised two- and four-days post-infection, homogenized using a bead beater for 20 minutes (25 Hz), and 10-fold serially diluted for CFU quantification. […] Prior to each injection, mice were anesthetized with isoflurane and monitored (respiratory rate and pedal reflexes). Next, we monitored the formation of the abscess and euthanized the mice. The infected area was excised three-days post-infection, homogenized using a bead beater for 20 min (25 Hz), and 10-fold serially diluted for CFU quantification. […]

| Sequence | outer membrane permeabilization (NPN fluorescence) (A. baumannii ATCC19606) | anti-infective activity (FIG. 4E) (P. aeruginosa PAO1) | decrease of bacterial counts compared to untreated controls (P. aeruginosa PAO1) |
| --- | --- | --- | --- |
| MLPKSFIKLLRSKVSSFLRPYK [SCUB3-MLP22] | increased fluorescence | reduced infections | 3 orders of magnitude |
| SKEMFPRSFIKLLRSKVSRFLRPYK [SCUB1-SKE25] | increased fluorescence | reduced infections | 3 orders of magnitude |

— patent US20240194290A1, “HIDDEN ANTIBIOTICS IN THE HUMAN PROTEOME” (THE TRUSTEES OF THE UNIVERSITY OF PENNSYLVANIA, priority 2021, published 2024)
